pIC50: −log10 of the molar value. Read-outs that look alike come from different tables or passages of the source.
Experiments:
[1] = target: CLK1 (Homo sapiens, UniProt P49759); experiment: biochemical
[2] = target: CK1δ/ε; experiment: In vitro kinase assay CK1δ/ε, CK1-specific peptide substrate; assay type: biochemical, Porcine
Protocol: (§1) It was also tested as positive control and its IC50 values were compared to those obtained for the compounds under study.
(§2) Buffer A: MgCl2 (10 mM), 1 mM ethylene glycol-bis(2-aminoethylether)-N,N,N’,N’- tetraacetic acid (EGTA), 1 mM dithiothreitol (DTT), 25 mM Tris-HCl pH 7.5, 50 μg heparin/mL. Buffer B: β-Glycerophosphate (60 mM), 30 mM p-nitrophenylphosphate, 25 mM 3-(N-morpholino) propanesulfonic acid (Mops) (pH 7.2), 5 mM EGTA, 15 mM MgCl2, 1 mM DTT, 0.1 mM sodium vanadate.
(§3) Blank values were substracted and activities expressed in % of the maximal activity, i.e., in the absence of inhibitors. Controls were performed with appropriate dilutions of dimethylsulfoxide (DMSO). IC50 values were calculated from dose-response curves established by Sigma-Plot graphs. The GSK-3, CK1, DYRK1A and CLK1 peptide substrates were obtained from Proteogenix (Oberhausbergen, France).
(§4) CDK5/p25. (Human, recombinant) was prepared as previously described. […] ATP (3000 Ci/mmol; 10 mCi/mL) in a final volume of 30 μL. After 30 min incubation at 30 °C, 25 μL aliquots of supernatant were spotted onto sheets of P81 phosphocellulose paper (Whatman) and 20 s later, the filters were washed eight times (for at least 5 min each time) in a solution of 10 mL phosphoric acid/L of water. The wet filters were counted in the presence of 1 mL ACS (Amersham, UK) scintillation fluid.
CK1δ/ε. (Porcine brain, native) was assayed as described for CDK5/p25 but using the CK1-specific peptide substrate […]pSAYSITA [37].

[3] = target: T1, CDK5/p25 (Homo sapiens, UniProt Q00535); experiment: In vitro kinase assay CDK5/p25, [γ-33P]ATP, histone H1 substrate; assay type: biochemical
T1 construct: made in house
Protocol: as §1, §2, §3, §4

[4] = target: GSK-3α/β; experiment: In vitro kinase assay GSK-3α/β, GS-1 peptide substrate; assay type: biochemical, Porcine
Protocol: as §1, §2, §3, §4
GSK-3α/β. (Porcine brain, native) was assayed, as described for CDK5/p25 but in buffer A and using a GSK-3 specific substrate (GS-1: […]pSEDEEE) (pS stands for phosphorylated serine).

[5] = target: DYRK1A (Rattus norvegicus, UniProt Q63470); experiment: In vitro kinase assay DYRK1A, Woodtide substrate; assay type: biochemical
Protocol: as §1, §2, §3, §4

[6] = 15 μM ATP, 30 min, 30 °C, triplicate, <50% inhibition at 10 μM = IC50 >10 μM

Sequence of CLK1 (P49759 whole entry): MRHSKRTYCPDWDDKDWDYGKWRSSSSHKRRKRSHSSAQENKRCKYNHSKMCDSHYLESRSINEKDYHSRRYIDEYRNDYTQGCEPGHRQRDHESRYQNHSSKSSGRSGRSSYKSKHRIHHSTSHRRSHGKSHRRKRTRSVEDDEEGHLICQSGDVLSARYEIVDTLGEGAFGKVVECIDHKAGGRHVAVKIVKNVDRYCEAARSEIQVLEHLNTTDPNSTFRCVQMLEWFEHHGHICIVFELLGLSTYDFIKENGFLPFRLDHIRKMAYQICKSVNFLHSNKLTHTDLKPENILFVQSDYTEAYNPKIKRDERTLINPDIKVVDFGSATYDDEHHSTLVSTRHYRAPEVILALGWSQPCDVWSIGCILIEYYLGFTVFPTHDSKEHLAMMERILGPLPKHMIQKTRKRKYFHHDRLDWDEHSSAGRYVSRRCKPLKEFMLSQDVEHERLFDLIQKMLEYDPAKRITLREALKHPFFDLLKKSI
T1 sequence (Q00535 whole entry): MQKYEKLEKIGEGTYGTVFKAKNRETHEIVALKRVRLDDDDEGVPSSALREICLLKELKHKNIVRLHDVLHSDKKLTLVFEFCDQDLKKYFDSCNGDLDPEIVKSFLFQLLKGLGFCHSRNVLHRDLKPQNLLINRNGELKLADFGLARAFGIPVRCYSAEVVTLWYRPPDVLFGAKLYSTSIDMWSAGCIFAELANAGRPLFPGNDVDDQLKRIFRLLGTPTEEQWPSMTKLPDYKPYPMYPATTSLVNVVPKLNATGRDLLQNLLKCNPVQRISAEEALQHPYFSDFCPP
T1 sequence (Q15078 99-307 partner limits assumed): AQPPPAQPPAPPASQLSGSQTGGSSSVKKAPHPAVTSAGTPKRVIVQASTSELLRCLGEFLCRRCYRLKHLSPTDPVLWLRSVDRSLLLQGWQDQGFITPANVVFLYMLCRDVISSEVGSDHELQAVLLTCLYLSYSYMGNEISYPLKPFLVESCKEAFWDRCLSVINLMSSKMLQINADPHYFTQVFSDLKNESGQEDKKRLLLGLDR

| Compound | pIC50 [1] | pIC50 [2, 6] | pIC50 [3] | pIC50 [4] | pIC50 [5] | pIC50 [4, 6] | pIC50 [2] | pIC50 ([5]; read-out: DYRK1A IC50) |
| --- | --- | --- | --- | --- | --- | --- | --- | --- |
| COCCn1cnc2ccc3nc(C#N)sc3c2c1=O [Compound 11b, 8-(2-Methoxyethyl)-9-oxo-8,9-dihydrothiazolo[5,4-f]quinazoline-2-carbonitrile] | 5.39 | < 5.00 | < 5.00 | – | 5.11 | ≤ 5.00 | – | – |
| COC(=N)c1nc2ccc3ncn(CCN4CCOCC4)c(=O)c3c2s1 [Compound 12j, Methyl 8-(2-morpholinoethyl)-9-oxo-8,9-dihydrothiazolo[5,4-f]quinazoline-2-carbimidate] | 6.16 | < 5.00 | < 5.00 | 5.92 | 6.70 | – | – | – |
| COC(=N)c1nc2ccc3ncn(C(C)C)c(=O)c3c2s1 [Compound 12d, Methyl 8-isopropyl-9-oxo-8,9-dihydrothiazolo[5,4-f]quinazoline-2-carbimidate] | 6.80 | – | 5.52 | 7.39 | 6.85 | – | 5.27 | – |
| COC(=N)c1nc2ccc3ncn(C4CCCCC4)c(=O)c3c2s1 [Compound 12g, Methyl 8-cyclohexyl-9-oxo-8,9-dihydrothiazolo[5,4-f]quinazoline-2-carbimidate] | 6.42 | < 5.00 | 5.74 | 7.52 | 6.77 | – | – | – |
| CCOC(=N)c1nc2ccc3ncn(C4CCCC4)c(=O)c3c2s1 [Compound 14e, Ethyl 8-cyclopentyl-9-oxo-8,9-dihydrothiazolo[5,4-f]quinazoline-2-carbimidate] | 6.11 | < 5.00 | < 5.00 | 7.54 | 6.64 | – | – | – |
| COC(=N)c1nc2ccc3ncn(N(C)C)c(=O)c3c2s1 [Compound 12h, Methyl 8-dimethylamino-9-oxo-8,9-dihydrothiazolo[5,4-f]quinazoline-2-carbimidate] | 6.00 | < 5.00 | < 5.00 | 6.52 | – | – | – | 6.30 |
| COC(=N)c1nc2ccc3ncn(C4CCC4)c(=O)c3c2s1 [Compound 12f, Methyl 8-cyclobutyl-9-oxo-8,9-dihydrothiazolo[5,4-f]quinazoline-2-carbimidate] | 7.04 | < 5.00 | < 5.00 | 6.80 | 6.89 | – | – | – |
| COC(=N)c1nc2ccc3ncn(-c4ccc(C)cc4)c(=O)c3c2s1 [Compound 12k, Methyl 8-(p-tolyl)-9-oxo-8,9-dihydrothiazolo[5,4-f]quinazoline-2-carbimidate] | 6.06 | < 5.00 | < 5.00 | 6.29 | 6.42 | – | – | – |
| COc1ccc2c(c1)[nH]c1c(C)nccc12 [Harmine, reference compound] | – | – | – | – | – | < 5.00 | 5.82 | – |
| COC(=N)c1nc2ccc3ncn(C4CC4)c(=O)c3c2s1 [Compound 12a, Methyl 8-cyclopropyl-9-oxo-8,9-dihydrothiazolo[5,4-f]quinazoline-2-carbimidate] | 7.51 | < 5.00 | 5.41 | 7.09 | – | – | – | 7.04 |
| COC(=N)c1nc2ccc3ncn(-c4ccc(N(C)C)cc4)c(=O)c3c2s1 [Compound 12m, Methyl 8-(4-dimethylaminophenyl)-9-oxo-8,9-dihydrothiazolo[5,4-f]quinazoline-2-carbimidate] | < 5.00 | < 5.00 | < 5.00 | – | < 5.00 | < 5.00 | – | – |
| N#Cc1nc2ccc3ncn(C4CC4)c(=O)c3c2s1 [Compound 11a, 8-Cyclopropyl-9-oxo-8,9-dihydrothiazolo[5,4-f]quinazoline-2-carbonitrile] | 5.96 | < 5.00 | < 5.00 | 5.48 | 5.48 | – | – | – |
| COC(=N)c1nc2ccc3ncn(C4CCCC4)c(=O)c3c2s1 [Compound 12e, Methyl 8-cyclopentyl-9-oxo-8,9-dihydrothiazolo[5,4-f]quinazoline-2-carbimidate] | 6.54 | < 5.00 | 5.31 | 7.55 | 7.14 | – | – | – |
| COC(=N)c1nc2ccc3ncn(C)c(=O)c3c2s1 [Compound 12n, Methyl 8-methyl-9-oxo-8,9-dihydrothiazolo[5,4-f]quinazoline-2-carbimidate] | 7.10 | < 5.00 | < 5.00 | 5.77 | 6.74 | – | – | – |
| COCCCn1cnc2ccc3nc(C#N)sc3c2c1=O [Compound 11c, 8-(3-Methoxypropyl)-9-oxo-8,9-dihydrothiazolo[5,4-f]quinazoline-2-carbonitrile] | 5.89 | < 5.00 | < 5.00 | 5.92 | 5.11 | – | – | – |
| COC(=N)c1nc2ccc3ncn(-c4ccc(OC)cc4)c(=O)c3c2s1 [Compound 12l, Methyl 8-(4-methoxyphenyl)-9-oxo-8,9-dihydrothiazolo[5,4-f]quinazoline-2-carbimidate] | 5.10 | < 5.00 | < 5.00 | 5.92 | 5.52 | – | – | – |
| CN(C)n1cnc2ccc3nc(C(=N)OCc4ccccc4)sc3c2c1=O [Compound 13h, Benzyl 8-dimethylamino-9-oxo-8,9-dihydrothiazolo[5,4-f]quinazoline-2-carbimidate] | 5.85 | < 5.00 | < 5.00 | 6.82 | 6.68 | – | – | – |
| N=C(OCc1ccccc1)c1nc2ccc3ncn(C4CCC4)c(=O)c3c2s1 [Compound 13f, Benzyl 8-cyclobutyl-9-oxo-8,9-dihydrothiazolo[5,4-f]quinazoline-2-carbimidate] | 7.15 | < 5.00 | < 5.00 | 7.15 | 7.23 | – | – | – |

Now from value to molecule, other results behind:

| pIC50 [1] | pIC50 [2, 6] | pIC50 [3] | pIC50 [4] | pIC50 [5] | Compound | pIC50 [4, 6] | pIC50 [2] | pIC50 ([5]; read-out: DYRK1A IC50) |
| --- | --- | --- | --- | --- | --- | --- | --- | --- |
| 5.72 | < 5.00 | < 5.00 | 5.92 | 6.09 | CCOC(=N)c1nc2ccc3ncn(CCOC)c(=O)c3c2s1 [Compound 14b, Ethyl 8-(2-methoxyethyl)-9-oxo-8,9-dihydrothiazolo[5,4-f]quinazoline-2-carboximidoate] | – | – | – |
| 7.37 | < 5.00 | < 5.00 | 6.38 | 6.38 | CC(C)OC(=N)c1nc2ccc3ncn(C4CC4)c(=O)c3c2s1 [Compound 15a, Isopropyl 8-cyclopropyl-9-oxo-8,9-dihydrothiazolo[5,4-f]quinazoline-2-carbimidate] | – | – | – |
| 6.47 | < 5.00 | < 5.00 | – | 6.43 | CCOC(=N)c1nc2ccc3ncn(C(C)C)c(=O)c3c2s1 [Compound 14d, Ethyl 8-isopropyl-9-oxo-8,9-dihydrothiazolo[5,4-f]quinazoline-2-carboximidoate] | – | – | – |
| 7.00 | < 5.00 | < 5.00 | 6.70 | 6.68 | CCOC(=N)c1nc2ccc3ncn(C4CC4)c(=O)c3c2s1 [Compound 14a, Ethyl 8-cyclopropyl-9-oxo-8,9-dihydrothiazolo[5,4-f]quinazoline-2-carbimidate] | – | – | – |
| 6.31 | < 5.00 | < 5.00 | 6.77 | 6.43 | CCOC(=N)c1nc2ccc3ncn(CCCOC)c(=O)c3c2s1 [Compound 14c, Ethyl 8-(3-methoxypropyl)-9-oxo-8,9-dihydrothiazolo[5,4-f]quinazoline-2-carboximidoate] | – | – | – |
| 6.23 | < 5.00 | < 5.00 | 6.16 | 6.54 | COCCn1cnc2ccc3nc(C(=N)OCc4ccccc4)sc3c2c1=O [Compound 13b, Benzyl 8-(2-methoxyethyl)-9-oxo-8,9-dihydrothiazolo[5,4-f]quinazoline-2-carbimidate] | – | – | – |
| 6.49 | < 5.00 | < 5.00 | 7.55 | 7.21 | N=C(OCc1ccccc1)c1nc2ccc3ncn(C4CCCC4)c(=O)c3c2s1 [Compound 13e, Benzyl 8-cyclopentyl-9-oxo-8,9-dihydrothiazolo[5,4-f]quinazoline-2-carbimidate] | – | – | – |
| 5.89 | < 5.00 | < 5.00 | 7.08 | 6.55 | N=C(OCc1ccccc1)c1nc2ccc3ncn(C4CCCCC4)c(=O)c3c2s1 [Compound 13g, Benzyl 8-cyclohexyl-9-oxo-8,9-dihydrothiazolo[5,4-f]quinazoline-2-carbimidate] | – | – | – |
| 7.22 | < 5.00 | < 5.00 | – | 7.22 | N=C(OCc1ccccc1)c1nc2ccc3ncn(C4CC4)c(=O)c3c2s1 [Compound 13a, Benzyl 8-cyclopropyl-9-oxo-8,9-dihydrothiazolo[5,4-f]quinazoline-2-carbimidate] | 7.00 | – | – |
